In patent US20250115581A1, “SUBSTITUTED PIPERIDINES AS CK1A DEGRADERS” (Monte Rosa Therapeutics, Inc., priority 2022, published 2025):

Key:
Format in all cases: cell-based
[1] = molecular target: T1, CK1α (Homo sapiens, UniProt P48729+Q96SW2); test: CK1α NanoBit Assay (HiBiT-tagged CSNK1A1 in HEK293 cells, luminescence); settings: 24 h
T1 construct: HEK293 clonal lines with CRISPR KI HiBiT tag on CSNK1A1; host or cells: HEK293 clonal line, CRISPR knock-in HiBiT at the CSNK1A1 locus, stably expressing LgBiT
Summary of the method: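 HEK293 with endogenous HiBiT-tagged CSNK1A1 and stable LgBiT, live-cell Endurazine substrate; compound added at 10 or 30 μM final top concentration after 16 h plating, then 24 h at 37 °C. Luminescence normalised to plate controls; DC50 by 3-parameter logistic fit, hill slope 1.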

[2] = tested on: SKCO1; test: Growth inhibition, CyQUANT Direct Cell Proliferation Assay, SKCO1; settings: Homo sapiens, SK-CO-1; SKCO1 cells, 120 to 168 hours
Protocol: (§1) SKCO1, LS180, and LS174T cell lines were purchased from ATCC. CW2 cell line was purchased from Riken. GP2D cell line was purchased from Sigma/ECACC. All cell lines were cultured in manufacturer's recommended media at 37° C., 5% CO2. Briefly, cells were suspended in 200 μL of media and seeded at 300 to 1,800 cells per well in tissue culture treated 96-well plates with black walls and clear bottom. Plates were incubated overnight and initial (TO) read was performed the following day using CyQUANT Direct Cell Proliferation Assay Kit (Thermo Fisher Scientific) according to manufacturer's protocol. All compounds were solubilized in DMSO and prepared at 3-fold serial dilution, using 9 points starting at 30 μM as highest concentration, administered to cells and incubated for 120 to 168 hours, at which point CyQUANT assay measurement was performed using Acumen Cellista instrument (Ex/Em 480/520 nm). Media-only wells were used as blank, and 0.3% DMSO was used as DMSO-treated cell control. Growth inhibition (percent response) was calculated using the following formula in Excel: “=if ([Compound treated Day N]>[Untreated Day 0, AVG], ([Compound treated Day N]− [Untreated Day 0, AVG])/([Untreated Day N]−[Untreated Day 0, AVG])*100, ([Compound Treated Day N]−[Untreated Day 0, AVG])/([Untreated Day 0, AVG])*100)”. GI50 is the response corresponding to the 50% of untreated control.
(§2) GI50 data are reported in Tables 4a, 4b, 4c, 4d, and 4e for compounds in Table 1. In Tables 4a, 4b, 4c, 4d, and 4e below, According to the code, A represents a GI50 value of ≤0.1 μM, B represents a GI50 value >0.1 μM and ≤1 μM, C represents an GI50 value >1 μM.

[3] = tested on: CW2; test: Growth inhibition, CyQUANT Direct Cell Proliferation Assay, CW2; settings: Homo sapiens, CW-2; CW2 cells, 120 to 168 hours
Protocol: as §1, §2

[4] = tested on: GP2D; test: Growth inhibition, CyQUANT Direct Cell Proliferation Assay, GP2D; settings: GP2D cells, 120 to 168 hours
Protocol: as §1, §2

T1 sequence (P48729 whole entry): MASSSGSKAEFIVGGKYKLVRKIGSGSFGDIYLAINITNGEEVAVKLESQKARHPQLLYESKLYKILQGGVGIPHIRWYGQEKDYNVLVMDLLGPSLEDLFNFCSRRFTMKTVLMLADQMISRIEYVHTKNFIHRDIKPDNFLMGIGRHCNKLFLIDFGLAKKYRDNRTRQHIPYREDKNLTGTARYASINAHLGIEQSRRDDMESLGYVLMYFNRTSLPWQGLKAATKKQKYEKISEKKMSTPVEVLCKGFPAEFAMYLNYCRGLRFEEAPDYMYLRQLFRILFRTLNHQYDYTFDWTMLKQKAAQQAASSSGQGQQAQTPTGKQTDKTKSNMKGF
T1 sequence (Q96SW2 whole entry): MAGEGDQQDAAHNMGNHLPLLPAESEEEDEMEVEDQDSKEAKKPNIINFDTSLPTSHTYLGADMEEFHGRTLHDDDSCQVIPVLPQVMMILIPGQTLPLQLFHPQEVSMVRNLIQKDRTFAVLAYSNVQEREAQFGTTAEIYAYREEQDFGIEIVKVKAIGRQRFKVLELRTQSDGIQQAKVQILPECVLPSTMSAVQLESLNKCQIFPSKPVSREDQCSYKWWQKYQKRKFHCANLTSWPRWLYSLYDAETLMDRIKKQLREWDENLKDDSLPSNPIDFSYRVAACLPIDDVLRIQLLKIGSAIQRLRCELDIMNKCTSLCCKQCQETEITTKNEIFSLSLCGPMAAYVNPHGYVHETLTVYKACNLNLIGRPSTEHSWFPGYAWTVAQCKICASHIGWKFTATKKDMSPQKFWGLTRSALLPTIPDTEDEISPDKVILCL
T1 sequence (Q16531 whole entry partner): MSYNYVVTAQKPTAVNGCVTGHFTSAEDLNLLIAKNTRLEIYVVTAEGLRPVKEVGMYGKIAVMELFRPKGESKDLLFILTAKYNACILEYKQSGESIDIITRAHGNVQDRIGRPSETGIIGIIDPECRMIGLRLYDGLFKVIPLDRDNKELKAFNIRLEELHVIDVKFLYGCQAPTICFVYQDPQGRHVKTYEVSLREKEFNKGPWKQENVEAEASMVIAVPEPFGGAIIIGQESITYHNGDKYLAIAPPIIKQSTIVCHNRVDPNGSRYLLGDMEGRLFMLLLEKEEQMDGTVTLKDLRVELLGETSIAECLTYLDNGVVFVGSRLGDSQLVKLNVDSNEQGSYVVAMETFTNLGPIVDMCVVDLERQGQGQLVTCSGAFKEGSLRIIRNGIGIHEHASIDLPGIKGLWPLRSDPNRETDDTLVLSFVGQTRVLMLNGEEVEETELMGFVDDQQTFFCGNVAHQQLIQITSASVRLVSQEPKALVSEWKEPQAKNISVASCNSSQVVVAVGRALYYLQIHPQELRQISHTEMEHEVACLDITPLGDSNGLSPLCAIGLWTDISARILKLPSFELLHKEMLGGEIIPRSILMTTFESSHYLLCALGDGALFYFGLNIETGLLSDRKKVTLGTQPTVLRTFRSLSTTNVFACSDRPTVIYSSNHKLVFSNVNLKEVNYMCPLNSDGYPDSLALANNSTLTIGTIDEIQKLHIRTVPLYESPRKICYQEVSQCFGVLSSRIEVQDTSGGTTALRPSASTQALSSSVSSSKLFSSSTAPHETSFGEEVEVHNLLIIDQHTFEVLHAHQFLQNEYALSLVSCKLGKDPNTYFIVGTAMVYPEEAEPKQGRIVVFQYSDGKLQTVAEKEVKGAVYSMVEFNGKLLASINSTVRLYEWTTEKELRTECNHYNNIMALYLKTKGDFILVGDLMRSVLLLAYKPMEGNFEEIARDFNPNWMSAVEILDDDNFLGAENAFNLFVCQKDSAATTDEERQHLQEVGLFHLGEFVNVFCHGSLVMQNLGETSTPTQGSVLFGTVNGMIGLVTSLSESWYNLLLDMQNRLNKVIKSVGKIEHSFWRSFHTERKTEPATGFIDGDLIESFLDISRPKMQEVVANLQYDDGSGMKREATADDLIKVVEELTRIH

DC50 [1] [µM] | GI50 [2] [nM] | SMILES | GI50 [3] [nM] | GI50 [4] [nM]
≤ 0.1 | 100 to 1000 | O=C1CCC(N2Cc3cc(N4CCN(c5ccccc5)C4=O)ccc3C2=O)C(=O)N1 (stereo not drawn) [Compound 101, 3-(1-oxo-5-(2-oxo-3-phenylimidazolidin-1-yl)isoindolin-2-yl)piperidine-2,6-dione] | 100 to 1000 | > 1000
≤ 0.1 | ≤ 100 | C[C@@H]1CN(c2ccc3c(c2)CN(C2CCC(=O)NC2=O)C3=O)C(=O)N1c1ccc(C2CC2)cc1 (stereo partly drawn) [Compound 125, 3-(5-((R)-3-(4-cyclopropylphenyl)-4-methyl-2-oxoimidazolidin-1-yl)-1-oxoisoindolin-2-yl)piperidine-2,6-dione] | ≤ 100 | 100 to 1000
≤ 0.1 | 100 to 1000 | C[C@@H]1CN(c2ccc3c(c2)CN(C2CCC(=O)NC2=O)C3=O)C(=O)N1c1ccccc1 (stereo partly drawn) [Compound 107, 3-(5-((R)-4-methyl-2-oxo-3-phenylimidazolidin-1-yl)-1-oxoisoindolin-2-yl)piperidine-2,6-dione] | ≤ 100 | 100 to 1000
